# Species: Rattus norvegicus
# Format: toxicity, organism-based, Sprague-Dawley
# Details: in vivo, po, route oral GAVAGE, […]; for ABSOLUTE EOSINOPHIL / ABSOLUTE LYMPHOCYTE / ABSOLUTE MONOCYTE / ABSOLUTE SEGMENTED NEUTROPHIL / BASOPHIL / EOSINOPHIL / ERYTHROCYTE COUNT / HEMATOCRIT / HEMOGLOBIN / LEUKOCYTE COUNT / LYMPHOCYTE / MEAN CORPUSCULAR HEMOGLOBIN / MEAN CORPUSCULAR HEMOGLOBIN CONCENTRATION / MEAN CORPUSCULAR VOLUME / MONOCYTE / NEUTROPHIL / NUCLEATED RED BLOOD CELLS / PLATELET COUNT: tissue Blood; for ALANINE AMINOTRANSFERASE / ALBUMIN / ALKALINE PHOSPHATASE / ASPARTATE AMINOTRANSFERASE / BLOOD UREA NITROGEN / CARBON DIOXIDE / CHLORIDE / CHOLESTEROL / CREATINE PHOSPHOKINASE / CREATININE / GLUCOSE / LACTATE DEHYDROGENASE / LIPASE / PHOSPHORUS / POTASSIUM / SODIUM / TOTAL BILIRUBIN / TOTAL PROTEIN / URIC ACID: tissue Plasma
# [1] = 130 mg/kg, 24 h, dose level Low, time 1 day
# [2] = 500 mg/kg, 6 h, dose level High, time 0.25 day
# [3] = 500 mg/kg, 24 h, dose level High, time 1 day
# Description: DrugMatrix - Regimen: Single
smiles,measurement,setting,value
CCOC(=O)C(C)(C)Oc1ccc(Cl)cc1 [CLOFIBRATE],ABSOLUTE EOSINOPHIL,[1],55.33 CELLS/uL
same,ABSOLUTE LYMPHOCYTE,[1],15484.17 CELLS/uL
same,ABSOLUTE MONOCYTE,[1],278.5 CELLS/uL
same,ABSOLUTE SEGMENTED NEUTROPHIL,[1],965.33 CELLS/uL
same,BASOPHIL,[1],0%
same,EOSINOPHIL,[1],0.33%
same,ERYTHROCYTE COUNT,[1],5.03 x10E6/uL
same,HEMATOCRIT,[1],32.6%
same,HEMOGLOBIN,[1],13.25 G/DL
same,LEUKOCYTE COUNT,[1],16.78 x10E3/uL
same,LYMPHOCYTE,[1],92.17%
same,MEAN CORPUSCULAR HEMOGLOBIN,[1],26.33 pg
same,MEAN CORPUSCULAR HEMOGLOBIN CONCENTRATION,[1],40.65 G/DL
same,MEAN CORPUSCULAR VOLUME,[1],64.78 fL
same,MONOCYTE,[1],1.67%
same,NEUTROPHIL,[1],5.83%
same,NUCLEATED RED BLOOD CELLS,[1],0 /100WBC
same,PLATELET COUNT,[1],862.83 x10E3/uL
same,ALANINE AMINOTRANSFERASE,[1],67 u/L
same,ALBUMIN,[1],4.33 G/DL
same,ALKALINE PHOSPHATASE,[1],318.17 u/L
same,ASPARTATE AMINOTRANSFERASE,[1],75.17 u/L
same,BLOOD UREA NITROGEN,[1],12.67 mg/dL
same,CARBON DIOXIDE,[1],32 mmol/L
same,CHLORIDE,[1],100 MEQ/L
same,CHOLESTEROL,[1],47.33 mg/dL
same,CREATINE PHOSPHOKINASE,[1],215.5 u/L
same,CREATININE,[1],0.16 mg/dL
same,GLUCOSE,[1],132.67 mg/dL
same,LACTATE DEHYDROGENASE,[1],108.83 u/L
same,LIPASE,[1],10.5 u/L
same,PHOSPHORUS,[1],9.12 mg/dL
same,POTASSIUM,[1],6.21 MEQ/L
same,SODIUM,[1],142.78 MEQ/L
same,TOTAL BILIRUBIN,[1],0.17 mg/dL
same,TOTAL PROTEIN,[1],5.58 G/DL
same,URIC ACID,[1],1.07 mg/dL
same,ABSOLUTE EOSINOPHIL,[2],41.33 CELLS/uL
same,ABSOLUTE LYMPHOCYTE,[2],7521 CELLS/uL
same,ABSOLUTE MONOCYTE,[2],204.83 CELLS/uL
same,ABSOLUTE SEGMENTED NEUTROPHIL,[2],899.5 CELLS/uL
same,BASOPHIL,[2],0%
same,EOSINOPHIL,[2],0.5%
same,ERYTHROCYTE COUNT,[2],5.56 x10E6/uL
same,HEMATOCRIT,[2],35.4%
same,HEMOGLOBIN,[2],13.87 G/DL
same,LEUKOCYTE COUNT,[2],8.67 x10E3/uL
same,LYMPHOCYTE,[2],86.5%
same,MEAN CORPUSCULAR HEMOGLOBIN,[2],24.97 pg
same,MEAN CORPUSCULAR HEMOGLOBIN CONCENTRATION,[2],39.18 G/DL
same,MEAN CORPUSCULAR VOLUME,[2],63.73 fL
same,MONOCYTE,[2],2.33%
same,NEUTROPHIL,[2],10.67%
same,NUCLEATED RED BLOOD CELLS,[2],0 /100WBC
same,PLATELET COUNT,[2],1195.5 x10E3/uL
same,ALANINE AMINOTRANSFERASE,[2],52.5 u/L
same,ALBUMIN,[2],4.53 G/DL
same,ALKALINE PHOSPHATASE,[2],309.5 u/L
same,ASPARTATE AMINOTRANSFERASE,[2],94.5 u/L
same,BLOOD UREA NITROGEN,[2],9.33 mg/dL
same,CARBON DIOXIDE,[2],22.5 mmol/L
same,CHLORIDE,[2],100.67 MEQ/L
same,CHOLESTEROL,[2],65.33 mg/dL
same,CREATINE PHOSPHOKINASE,[2],333.17 u/L
same,CREATININE,[2],0.16 mg/dL
same,GLUCOSE,[2],130.33 mg/dL
same,LACTATE DEHYDROGENASE,[2],146.83 u/L
same,LIPASE,[2],9.83 u/L
same,PHOSPHORUS,[2],11.68 mg/dL
same,POTASSIUM,[2],6.42 MEQ/L
same,SODIUM,[2],143.4 MEQ/L
same,TOTAL BILIRUBIN,[2],0.18 mg/dL
same,TOTAL PROTEIN,[2],6 G/DL
same,URIC ACID,[2],1.37 mg/dL
same,ABSOLUTE EOSINOPHIL,[3],42 CELLS/uL
same,ABSOLUTE LYMPHOCYTE,[3],10953.5 CELLS/uL
same,ABSOLUTE MONOCYTE,[3],221.67 CELLS/uL
same,ABSOLUTE SEGMENTED NEUTROPHIL,[3],1432.83 CELLS/uL
same,BASOPHIL,[3],0%
same,EOSINOPHIL,[3],0.33%
same,ERYTHROCYTE COUNT,[3],5.6 x10E6/uL
same,HEMATOCRIT,[3],35.22%
same,HEMOGLOBIN,[3],14.02 G/DL
same,LEUKOCYTE COUNT,[3],12.65 x10E3/uL
same,LYMPHOCYTE,[3],86.83%
same,MEAN CORPUSCULAR HEMOGLOBIN,[3],25.02 pg
same,MEAN CORPUSCULAR HEMOGLOBIN CONCENTRATION,[3],39.8 G/DL
same,MEAN CORPUSCULAR VOLUME,[3],62.93 fL
same,MONOCYTE,[3],1.67%
same,NEUTROPHIL,[3],11.17%
same,NUCLEATED RED BLOOD CELLS,[3],0 /100WBC
same,PLATELET COUNT,[3],1112.33 x10E3/uL
same,ALANINE AMINOTRANSFERASE,[3],93.33 u/L
same,ALBUMIN,[3],4.55 G/DL
same,ALKALINE PHOSPHATASE,[3],411.33 u/L
same,ASPARTATE AMINOTRANSFERASE,[3],162.83 u/L
same,BLOOD UREA NITROGEN,[3],11.67 mg/dL
same,CARBON DIOXIDE,[3],33.5 mmol/L
same,CHLORIDE,[3],97.83 MEQ/L
same,CHOLESTEROL,[3],34.83 mg/dL
same,CREATINE PHOSPHOKINASE,[3],245.67 u/L
same,CREATININE,[3],0.19 mg/dL
same,GLUCOSE,[3],137.17 mg/dL
same,LACTATE DEHYDROGENASE,[3],114.17 u/L
same,LIPASE,[3],9.83 u/L
same,PHOSPHORUS,[3],10.23 mg/dL
same,POTASSIUM,[3],6.67 MEQ/L
same,SODIUM,[3],143.3 MEQ/L
same,TOTAL BILIRUBIN,[3],0.25 mg/dL
same,TOTAL PROTEIN,[3],5.77 G/DL
same,URIC ACID,[3],1.18 mg/dL

# Reference: ChEMBL document CHEMBL3885881, “DrugMatrix”
